Measured values reported in patent US20140072613A1, “Compositions and Methods for Treating Cutaneous Scarring” (priority 2012, published 2014).
Where no end group is shown, it is not given here.

What was measured:
266 human kinases [1] = experiment: biochemical; assay type: biochemical; details: at 100 μM
Excerpt: (§1) Specifically, in these assays, a positively charged substrate is phosphorylated with a radiolabeled phosphate group from an ATP if the kinase is not inhibited by an inhibitor peptide. The positively charged substrate then is attracted to a negatively charged filter membrane, quantified with a scintillation counter, and compared to a 100% activity control.

[2] = tested on: hypertrophic scarring induced by mechanical loading; experiment: Mouse model of hypertrophic scarring induced by mechanical loading: scar area, gross and histological; assay type: in vivo; details: 50 μg/kg intraperitoneal daily day 0 through day 14
Procedure: Dorsal skins were distracted laterally along both sides of the wound edge by a distraction rate of 1 mm/day from day 4 to day 7, and then 2 mm/day from day 8 to day 14. […] At day 14, skin wounds were photographed digitally, and scar areas were measured by Image J software. Tissue was harvested for RNA extraction, Florescence-Activated Cell Sorting (FACS) analysis, and histological examination.
Digital photographs were taken on the day of surgery and every two days thereafter. Gross scar appearance was assessed by tracing the wound margin and calculating the hypertrophic scar area.
Scar samples from each mouse were fixed in 10% formalin and embedded in paraffin. Sections were made and stained with hematoxylin and eosin (H&E) to assess scar tissue deposition. […] Scar areas were outlined, and areas were measured by using Image J software. Scale bar=100 μm.

Melanocortin 4 = target: T1, Melanocortin 4 (Homo sapiens, UniProt P32245); experiment: Cerep binding assay (radiolabelled ligand competition)
T1 construct: Cerep
T1 sequence (P32245 whole entry): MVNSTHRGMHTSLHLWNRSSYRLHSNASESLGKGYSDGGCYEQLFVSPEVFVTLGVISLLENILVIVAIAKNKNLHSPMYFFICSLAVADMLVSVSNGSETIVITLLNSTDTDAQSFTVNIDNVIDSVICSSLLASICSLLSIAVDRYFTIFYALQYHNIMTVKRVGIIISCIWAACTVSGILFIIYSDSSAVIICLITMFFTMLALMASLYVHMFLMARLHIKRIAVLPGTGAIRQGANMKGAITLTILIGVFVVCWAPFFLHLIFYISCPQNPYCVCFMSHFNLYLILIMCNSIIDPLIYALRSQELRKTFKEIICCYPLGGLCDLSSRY
Procedure: (§2) Each binding assay was performed in 6-control wells with or without vehicle plus an 8-point dose-response of the relevant reference compound.

Serotonin 2A = target: T2, Serotonin 2A (Homo sapiens, UniProt P28223); experiment: as above
T2 construct: Cerep
T2 sequence (P28223 whole entry): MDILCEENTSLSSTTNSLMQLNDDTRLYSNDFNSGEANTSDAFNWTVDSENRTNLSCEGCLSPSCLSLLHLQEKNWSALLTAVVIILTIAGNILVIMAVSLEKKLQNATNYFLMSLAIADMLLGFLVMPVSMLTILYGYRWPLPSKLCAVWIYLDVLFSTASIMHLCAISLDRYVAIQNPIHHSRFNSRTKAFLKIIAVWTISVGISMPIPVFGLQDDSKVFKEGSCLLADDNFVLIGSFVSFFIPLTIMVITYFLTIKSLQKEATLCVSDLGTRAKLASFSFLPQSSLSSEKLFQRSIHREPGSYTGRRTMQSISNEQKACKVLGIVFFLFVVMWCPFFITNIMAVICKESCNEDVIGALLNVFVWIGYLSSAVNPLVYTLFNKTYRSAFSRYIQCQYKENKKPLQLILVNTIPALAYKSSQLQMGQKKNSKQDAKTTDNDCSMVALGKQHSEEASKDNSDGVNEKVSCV
Procedure: as §2

Neurokinin 2 = target: T3, Neurokinin 2 (Homo sapiens, UniProt P21452); experiment: as above
T3 construct: Cerep
T3 sequence (P21452 whole entry): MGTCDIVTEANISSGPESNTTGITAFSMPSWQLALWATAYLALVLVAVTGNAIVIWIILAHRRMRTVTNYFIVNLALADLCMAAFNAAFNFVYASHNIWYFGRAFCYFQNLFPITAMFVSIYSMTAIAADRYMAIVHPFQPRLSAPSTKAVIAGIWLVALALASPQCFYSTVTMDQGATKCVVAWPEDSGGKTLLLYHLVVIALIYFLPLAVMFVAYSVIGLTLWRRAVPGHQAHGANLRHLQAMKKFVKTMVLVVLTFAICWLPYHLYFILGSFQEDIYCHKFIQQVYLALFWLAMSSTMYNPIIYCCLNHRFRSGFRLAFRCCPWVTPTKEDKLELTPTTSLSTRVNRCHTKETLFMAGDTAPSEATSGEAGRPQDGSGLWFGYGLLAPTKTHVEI
Procedure: as §2

DMPK (h) = target: T4, DMPK (h) (Homo sapiens, UniProt Q09013); experiment: Millipore radiometric kinase assay (IC50 Profiler Express); assay type: biochemical
T4 sequence (Q09013 1-629): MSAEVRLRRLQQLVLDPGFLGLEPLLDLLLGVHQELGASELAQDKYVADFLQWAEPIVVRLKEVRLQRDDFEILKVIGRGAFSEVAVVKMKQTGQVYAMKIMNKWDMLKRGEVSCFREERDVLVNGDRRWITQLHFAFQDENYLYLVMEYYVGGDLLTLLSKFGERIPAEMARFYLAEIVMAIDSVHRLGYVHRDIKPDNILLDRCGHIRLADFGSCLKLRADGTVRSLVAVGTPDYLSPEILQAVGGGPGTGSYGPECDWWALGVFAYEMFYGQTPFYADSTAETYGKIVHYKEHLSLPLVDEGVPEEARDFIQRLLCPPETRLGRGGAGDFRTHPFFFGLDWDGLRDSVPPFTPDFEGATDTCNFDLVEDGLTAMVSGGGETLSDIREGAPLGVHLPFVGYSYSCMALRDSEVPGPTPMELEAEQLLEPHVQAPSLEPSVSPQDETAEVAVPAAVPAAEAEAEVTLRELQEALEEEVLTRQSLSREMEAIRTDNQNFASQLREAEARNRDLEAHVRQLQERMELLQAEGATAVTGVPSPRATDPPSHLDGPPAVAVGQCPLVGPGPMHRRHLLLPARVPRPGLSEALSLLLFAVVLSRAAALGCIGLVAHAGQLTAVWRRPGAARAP
Excerpt: as §1

LOK (h) = LOK (h) (Homo sapiens, UniProt O94804); experiment: as above; assay type: biochemical
Excerpt: as §1

DRAK1 (h) = target: T5, DRAK1 (h) (Homo sapiens, UniProt Q9UEE5); experiment: as above; assay type: biochemical
T5 sequence (Q9UEE5 1-414): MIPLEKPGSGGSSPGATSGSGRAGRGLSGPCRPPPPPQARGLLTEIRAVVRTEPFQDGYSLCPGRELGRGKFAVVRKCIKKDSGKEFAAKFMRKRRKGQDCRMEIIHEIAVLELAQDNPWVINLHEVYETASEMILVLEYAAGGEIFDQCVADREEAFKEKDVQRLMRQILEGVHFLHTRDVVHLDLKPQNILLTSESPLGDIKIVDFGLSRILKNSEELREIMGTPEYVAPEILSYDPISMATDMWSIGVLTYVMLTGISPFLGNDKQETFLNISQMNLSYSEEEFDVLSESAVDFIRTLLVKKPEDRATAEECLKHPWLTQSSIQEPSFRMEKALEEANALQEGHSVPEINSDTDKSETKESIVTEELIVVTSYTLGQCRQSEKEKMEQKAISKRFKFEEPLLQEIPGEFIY
Excerpt: as §1

EGFR (L861Q) (h) = EGFR (L861Q) (h) (Homo sapiens, UniProt P00533, L861Q); experiment: as above; assay type: biochemical
Excerpt: as §1

CaMK1δ (h) = CaMK1δ (h) (Homo sapiens, UniProt Q8IU85); experiment: biochemical
Excerpt: as §1

Fes(h) = Fes(h) (Homo sapiens, UniProt P07332); experiment: biochemical
Excerpt: as §1

Fgr (h) = Fgr (h) (Homo sapiens, UniProt P09769); experiment: biochemical
Sequence of Fgr (h) (P09769 whole entry): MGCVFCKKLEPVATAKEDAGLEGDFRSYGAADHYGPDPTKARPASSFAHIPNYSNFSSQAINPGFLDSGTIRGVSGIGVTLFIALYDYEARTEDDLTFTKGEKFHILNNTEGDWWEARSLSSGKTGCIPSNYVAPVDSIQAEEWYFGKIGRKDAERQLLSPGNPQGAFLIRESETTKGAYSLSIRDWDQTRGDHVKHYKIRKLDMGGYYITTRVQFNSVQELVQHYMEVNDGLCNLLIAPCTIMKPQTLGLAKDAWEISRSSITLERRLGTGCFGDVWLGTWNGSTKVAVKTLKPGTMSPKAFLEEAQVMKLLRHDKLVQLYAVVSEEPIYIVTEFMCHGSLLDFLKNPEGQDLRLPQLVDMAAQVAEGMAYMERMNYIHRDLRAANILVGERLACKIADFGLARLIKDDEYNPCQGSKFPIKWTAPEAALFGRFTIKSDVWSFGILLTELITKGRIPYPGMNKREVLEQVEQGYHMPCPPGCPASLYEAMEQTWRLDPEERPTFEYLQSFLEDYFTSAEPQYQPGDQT
Excerpt: as §1

MSK1 (h) = MSK1 (h) (Homo sapiens, UniProt O75582); experiment: biochemical
Sequence of MSK1 (h) (O75582 whole entry): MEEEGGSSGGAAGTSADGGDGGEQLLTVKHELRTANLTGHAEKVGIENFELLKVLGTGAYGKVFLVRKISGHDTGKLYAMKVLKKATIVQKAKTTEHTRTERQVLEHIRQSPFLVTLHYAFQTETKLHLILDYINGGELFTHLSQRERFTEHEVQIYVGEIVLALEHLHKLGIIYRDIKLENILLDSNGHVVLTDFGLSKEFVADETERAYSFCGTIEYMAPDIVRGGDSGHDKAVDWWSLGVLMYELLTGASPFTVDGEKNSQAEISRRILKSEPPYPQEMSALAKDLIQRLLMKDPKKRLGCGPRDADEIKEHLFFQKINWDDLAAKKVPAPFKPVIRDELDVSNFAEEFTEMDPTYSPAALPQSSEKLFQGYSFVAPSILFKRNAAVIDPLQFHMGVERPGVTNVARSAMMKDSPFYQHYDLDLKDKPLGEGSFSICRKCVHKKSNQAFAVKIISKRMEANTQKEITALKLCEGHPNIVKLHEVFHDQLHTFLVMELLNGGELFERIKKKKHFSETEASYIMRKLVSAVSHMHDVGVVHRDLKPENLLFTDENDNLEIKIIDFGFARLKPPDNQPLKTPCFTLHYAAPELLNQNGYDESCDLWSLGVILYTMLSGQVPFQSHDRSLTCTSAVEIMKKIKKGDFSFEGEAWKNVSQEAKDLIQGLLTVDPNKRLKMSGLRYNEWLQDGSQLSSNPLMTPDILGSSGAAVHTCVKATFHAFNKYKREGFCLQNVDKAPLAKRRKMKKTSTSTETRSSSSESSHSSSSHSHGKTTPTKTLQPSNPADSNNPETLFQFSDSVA
Excerpt: as §1

Pim-1 (h) = Pim-1 (h) (Homo sapiens, UniProt P11309); experiment: biochemical
Sequence of Pim-1 (h) (P11309 whole entry): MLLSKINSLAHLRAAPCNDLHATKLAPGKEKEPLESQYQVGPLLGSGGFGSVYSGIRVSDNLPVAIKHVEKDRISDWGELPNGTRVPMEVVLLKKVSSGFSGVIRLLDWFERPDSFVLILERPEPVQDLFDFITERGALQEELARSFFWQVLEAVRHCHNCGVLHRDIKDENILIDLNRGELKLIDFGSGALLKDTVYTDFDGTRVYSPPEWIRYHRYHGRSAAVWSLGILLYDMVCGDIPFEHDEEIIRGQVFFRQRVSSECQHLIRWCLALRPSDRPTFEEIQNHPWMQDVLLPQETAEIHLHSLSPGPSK
Excerpt: as §1

Yes (h) = Yes (h) (Homo sapiens, UniProt P07947); experiment: biochemical
Excerpt: as §1

EphA2 (h) = EphA2 (h) (Homo sapiens, UniProt P29317); experiment: biochemical
Excerpt: as §1

CaMKI (h) = CaMKI (h) (Homo sapiens, UniProt Q14012); experiment: biochemical
Sequence of CaMKI (h) (Q14012 whole entry): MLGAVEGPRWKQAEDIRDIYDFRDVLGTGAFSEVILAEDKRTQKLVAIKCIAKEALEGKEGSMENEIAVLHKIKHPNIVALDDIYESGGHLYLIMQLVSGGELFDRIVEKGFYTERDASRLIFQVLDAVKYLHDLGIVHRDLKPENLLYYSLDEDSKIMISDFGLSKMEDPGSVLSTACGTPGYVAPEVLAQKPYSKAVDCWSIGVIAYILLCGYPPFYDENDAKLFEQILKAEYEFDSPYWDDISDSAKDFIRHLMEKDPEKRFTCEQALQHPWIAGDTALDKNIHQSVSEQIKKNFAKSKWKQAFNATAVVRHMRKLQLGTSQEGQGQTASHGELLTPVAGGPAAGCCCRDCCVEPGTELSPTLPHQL
Excerpt: as §1

FGFR2 (h) = FGFR2 (h) (Homo sapiens, UniProt P21802); experiment: biochemical
Excerpt: as §1

MAPKAP-K3 (h) = MAPKAP-K3 (h) (Homo sapiens, UniProt Q16644); experiment: Millipore radiometric kinase assay (IC50 Profiler Express / kinase profiling); assay type: biochemical
Sequence of MAPKAP-K3 (h) (Q16644 whole entry): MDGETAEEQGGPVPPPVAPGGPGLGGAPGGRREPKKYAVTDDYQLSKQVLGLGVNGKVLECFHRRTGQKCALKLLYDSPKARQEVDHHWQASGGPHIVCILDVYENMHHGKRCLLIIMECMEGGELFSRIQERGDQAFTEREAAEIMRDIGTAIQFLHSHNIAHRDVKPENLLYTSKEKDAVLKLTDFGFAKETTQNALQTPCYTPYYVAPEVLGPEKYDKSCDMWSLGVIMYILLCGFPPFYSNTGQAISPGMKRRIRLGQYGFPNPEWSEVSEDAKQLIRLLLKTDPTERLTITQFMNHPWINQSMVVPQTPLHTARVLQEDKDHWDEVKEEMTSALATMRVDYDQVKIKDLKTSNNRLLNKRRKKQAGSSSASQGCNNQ
Excerpt: as §1

TrkB (h) = TrkB (h) (Homo sapiens, UniProt Q16620); experiment: as above; assay type: biochemical
Sequence of TrkB (h) (Q16620 32-822): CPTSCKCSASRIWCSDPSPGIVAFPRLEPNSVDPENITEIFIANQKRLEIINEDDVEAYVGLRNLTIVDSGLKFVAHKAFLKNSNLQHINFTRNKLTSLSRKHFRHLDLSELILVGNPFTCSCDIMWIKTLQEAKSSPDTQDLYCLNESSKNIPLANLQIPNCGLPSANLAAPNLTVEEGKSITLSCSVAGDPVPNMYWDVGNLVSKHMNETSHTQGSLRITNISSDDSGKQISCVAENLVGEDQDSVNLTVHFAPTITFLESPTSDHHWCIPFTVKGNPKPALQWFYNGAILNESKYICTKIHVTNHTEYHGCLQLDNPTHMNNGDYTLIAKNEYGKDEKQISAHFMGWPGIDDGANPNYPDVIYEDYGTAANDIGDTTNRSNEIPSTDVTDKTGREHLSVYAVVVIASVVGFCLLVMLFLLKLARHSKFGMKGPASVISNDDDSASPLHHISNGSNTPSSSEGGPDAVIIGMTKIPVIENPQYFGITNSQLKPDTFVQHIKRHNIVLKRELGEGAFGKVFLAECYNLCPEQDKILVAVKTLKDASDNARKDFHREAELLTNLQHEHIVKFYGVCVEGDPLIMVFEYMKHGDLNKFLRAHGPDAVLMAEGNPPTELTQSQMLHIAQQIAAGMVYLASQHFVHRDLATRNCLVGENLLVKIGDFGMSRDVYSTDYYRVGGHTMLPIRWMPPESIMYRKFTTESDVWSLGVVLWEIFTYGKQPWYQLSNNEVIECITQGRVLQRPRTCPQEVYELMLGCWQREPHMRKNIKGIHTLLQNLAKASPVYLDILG
Excerpt: as §1

MAPKAP-K2 (h) = MAPKAP-K2 (h) (Homo sapiens, UniProt P49137); experiment: as above; assay type: biochemical
Sequence of MAPKAP-K2 (h) (P49137 whole entry): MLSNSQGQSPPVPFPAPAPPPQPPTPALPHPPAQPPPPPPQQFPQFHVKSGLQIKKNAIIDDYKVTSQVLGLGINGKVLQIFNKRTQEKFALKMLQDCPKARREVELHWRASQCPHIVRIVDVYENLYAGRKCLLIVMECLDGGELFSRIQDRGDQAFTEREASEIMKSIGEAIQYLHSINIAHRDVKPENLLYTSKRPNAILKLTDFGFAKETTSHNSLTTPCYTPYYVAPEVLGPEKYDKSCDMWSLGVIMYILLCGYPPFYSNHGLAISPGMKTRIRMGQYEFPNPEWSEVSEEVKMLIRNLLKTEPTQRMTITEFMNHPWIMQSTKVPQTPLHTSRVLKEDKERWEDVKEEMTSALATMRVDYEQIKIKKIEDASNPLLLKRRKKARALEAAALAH
Excerpt: as §1

266 human kinases [3] = target: 266 human kinases (Homo sapiens, UniProt Q9H1R3); experiment: biochemical; assay type: biochemical; details: MLCK(h); 100 μM
Excerpt: as §1

[4] = tested on: Ca^2+/calmodulin-dependent protein kinase II (CaMKII); details: cited from earlier work
PKA = details: AIP 1 μM; cited from earlier work
CaMKIV = CaMKIV (Homo sapiens, UniProt Q16566); details: AIP 1 μM; cited from earlier work
PKC = details: AIP 1 μM; cited from earlier work
[5] = read-out: % Activity of off-target receptor

## FAKLAARLYRKALARQLGVAA [MMI-0300]
266 human kinases [1]
  off-target kinase inhibition: very limited off-target kinase inhibition
[2]
  gross scar appearance vs PBS-treated control mouse: less inflammation and less scar formation

## KAFAKLAARLYRKALARQLGVAA [MMI-0400]
266 human kinases [1]
  off-target kinase inhibition: very limited off-target kinase inhibition

## YARAAARQARAKALARQLGVAA [MMI-0100]
Melanocortin 4; concentration not given
  inhibition of off-target protein: less than 30%
Melanocortin 4; [5]
  activity at 100 µM: 81%
Serotonin 2A; concentration not given
  inhibition of off-target protein: less than 30%
Serotonin 2A; [5]
  activity at 100 µM: 86%
Neurokinin 2; concentration not given
  inhibition of off-target protein: less than 30%
Neurokinin 2; [5]
  activity at 100 µM: 85%
DMPK (h)
  IC50: 34.1 µM
LOK (h)
  IC50: 47.6 µM
DRAK1 (h)
  IC50: 78.3 µM
EGFR (L861Q) (h)
  IC50: 128 µM
CaMK1δ (h)
  IC50: 45.8 µM
Fes(h)
  IC50: 174 µM
Fgr (h)
  IC50: 141 µM
MSK1 (h)
  IC50: 102 µM
Pim-1 (h)
  IC50: 71.7 µM
Yes (h)
  IC50: 114 µM
EphA2 (h)
  IC50: 181 µM
CaMKI (h)
  IC50: 11.7 µM
CaMKI (h); read-out: inhibition of kinase activity of CaMKI
  inhibition at 100 µM: > 65%
FGFR2 (h)
  IC50: 172 µM
MAPKAP-K3 (h)
  IC50: 15.8 µM
MAPKAP-K3 (h); at 100 μM, in vitro, read-out: inhibition of kinase activity of MK3
  inhibition at 100 µM: > 65%
TrkB (h)
  IC50: 4.6 µM
TrkB (h); at 100 μM, in vitro
  inhibition at 100 µM: > 65%
MAPKAP-K2 (h)
  IC50: 12.1 µM
MAPKAP-K2 (h); at 100 μM, in vitro, read-out: inhibition of kinase activity of MK2
  inhibition at 100 µM: > 65%
266 human kinases [3]
  activity at 100 µM: 85%

## autocamtide-2 related inhibitory peptide [AIP]
[4]; AIP 1 μM
  CaMKII activity: inhibited completely
[4]
  IC50: 0.1 µM
PKA
  PKA activity: not affected
CaMKIV
  CaMKIV activity: not affected
PKC
  PKC activity: not affected
